Measured values as given in patent US9376700B2, “Methods of modifying N-termini of a peptide or protein using transferases” (The Trustees of the University of Pennsylvania, priority 2012, dated 2016).
Where “and” joins values, the source holds several entries; their conditions need not be identical. Equal values may be shown once. Read-outs that look alike come from different tables or passages of the source.

Assays:
[1] = molecular target: T1, E. coli aminoacyl transferase (AaT) (Escherichia coli, UniProt P0A8P1)
Method: The LysAlaAcm ligation assay was used to analyze the kinetics of AaT with substrate 4a. The ligation assay was modified for ease of analysis as follows: The total reaction volume was scaled up to 590 μL and all reagents were maintained at the same concentrations as mentioned above, Five concentrations of 4a were monitored for a total reaction time of 30 min, with concentrations ranging from 0.05 to 1 mM.
Each 30 min kinetic experiment was done in triplicate with a total of fourteen 40 μL aliquots for all substrate concentrations.
Therefore, the reaction was characterized in terms of the Michaelis-Menten kinetic scheme in Equation 2.
To determine initial velocities, the primary kinetic data is fit to the hyperbolic Equation 3, which, though phenomenological, produces a high quality fit (R>0.99 for all 5 data sets). Data from the first two minutes were fit to a linear expression (Equation 4). A non-zero intercept is employed for improved quality of fit; this can be justified in terms of a rapid burst phase not captured in the 1 min resolution of this assay.
The initial velocities were then plotted as a function of Phe-A donor concentration and fit to Equation 5 to obtain kcat and KM values, where KM=(k−1+kcat)/k1 as depicted in FIG. 3B.
To characterize the enzymatic activity of AaT toward the present acyl adenosyl substrates, an HPLC assay was used to determine initial reaction rates to be fit to a standard Michaelis-Menten kinetic model.

[2] = molecular target: T2, E. coli aminoacyl tRNA transferase (AaT) (Escherichia coli, UniProt P0A8P1); assay: AaT-catalyzed α-casein N-terminal modification (Edman degradation, tryptic digest MALDI MS); type: biochemical; conditions: Phe donor, additional dose at 4 h, overnight
T2 construct: made in house; host or cells: E. coli BL21-Gold (DE3), plasmid pEG6, Ni-NTA purified
Method: HEPES pH 8.0, 1.50 mM KO, 10 mM MgCl2) and AaT (0.05 mg). The reaction mixture was incubated at 37° C. for 12 h, AaT was removed using Ni^2+ resin (Ni-NTA Superflow, Qiagen), and then buffer exchanged four times into phosphate buffered saline (PBS, 12 mM NaH2PO4, 50 mM NaCl, 4.7 mM KCl, pH 8.0) by Spectra/Por 1 dialysis tubing (Spectrum Laboratories; Rancho Dominguez, Calif.). Azf-modified α-casein was used directly after buffer exchange into PBS. Aliquots (1 nmol) of α-casein were diluted into PBS (22 μL) containing either fluorescein-alkyne (FlAlk, 91 μM) or propargylamine (Alk, 227 μM) for copper-catalyzed azide-alkyne cycloaddition (CuAAC). […] Reactions were boiled with gel loading dye LDS (Pierce; Rockford, Ill.) for 10 min at 95° C. and analyzed by SDS-PAGE. Fluorescence images were obtained with a Geldoc (BioRAD; Hercules, Calif.) using an excitation wavelength of 302 nm for detection of fluorescein. α-Casein was also directly visualized by Coomassie Brilliant Blue staining.
α-Casein-Azf (33 or α-casein (33 μg) was digested with sequencing grade modified Trypsin (0.6 μg) in 27 μL of 25 mM ammonium bicarbonate pH 7.5 (freshly prepared). Digestions were carried out at 37° C. for 14 h. Trypsin digest aliquots (1 μL) were combined with α-cyano-4-hydroxycinnamic acid (1 μL of a saturated solution in 1:1 H2O/CH3CN with 1% TFA) and analyzed by MALDI MS. […]

[3] = HPLC analysis of donor hydrolysis in mock LysAlaAcm reactions without enzyme; type: physicochemical; conditions: mock reaction without AaT, AaT Ligation Buffer pH 8.0, 37° C., after 4 h
Method: The amino acid analog donor (4a-4z) was suspected to be hydrolytically unstable and was tested in mock LysAlaAcm reactions without enzyme present and then analyzed by HPLC. The mock LysAlaAcm reactions were performed as described in the LysAlaAcm Ligation Assay section; however, the AaT solution was replaced with water. Phe-A solutions were analyzed at 30 min, 1 h, and 4 h. Immediately following the reaction, the sample was diluted to 1,200 μL and injected onto the C18 HPLC column using Gradient 1. […] Additionally, 1 mM A and 1 mM Phe were injected on the HPLC to serve as standards to verify retention times. Note that the relative concentrations of 2′ and 3′ Phe-A would be different in an actual reaction where the 3′ Phe-A is preferentially consumed by AaT in the transfer reaction (Watanabe et al., 2007, Nature 449:867-871). The change in 2′:3′ ratio between 0 h and 30 min probably reflected the higher pH of the 30 min data (Taiji et al., 1983, Biochemistry 22:3220-3225).

[4] = molecular target: T1, E. coli aminoacyl transferase (AaT); assay: LysAlaAcm ligation assay: AaT-catalyzed transfer from aminoacyl adenosine donor to LysAlaAcm, HPLC at 325 nm; type: biochemical; design: made in house; host or cells: E. coli BL21-Gold (DE3), plasmid pEG6, Ni-NTA purified; conditions: for Transfer to LysAlaAcm by AaT (in words): reactions analyzed after 4 h; for Ligated Product Yield (%): 4 h
Method: Each ligation reaction, 125 μL total volume, contained the following reagents: aminoacyl adenosine donor (1 mM), recombinant His10-tagged E. coli aminoacyl transferase (2.26 μM), and LysAlaAcm (100 μM) in the AaT Ligation Buffer (50 mM HEPES pH 8.0, 150 mm KCl, 10 mM MgCl2). The reaction mixtures were incubated at 37° C. for four hours and quenched with 1% acetic acid. The proteins were extracted from the reactions via acetone precipitation. The reactions were precipitated using 4× reaction volume of acetone and cooled at −20° C. for 1 h. Next, the reactions were centrifuged at 13,200 rpm at 4° C. for 20 min to separate the reaction from precipitated protein. The supernatant was transferred to fresh 1.5 mL centrifuge tubes and allowed for acetone evaporation overnight at room temperature. After acetone evaporation, the supernatant was dried in a Speedvac (Savant, Thermo Scientific, Fisher Inc.) for 30 min to remove residual acetone. The resulting reaction volume was dissolved up to 1.2 mL using Milli-Q water and analyzed by HPLC (gradient below) to determine ligation yield by integration of separated peak intensities monitored at 325 nm. Collected HPLC fractions were characterized through MALDI MS analysis. […] Reactions using Phe-pdCpA as donor were carried out in an identical fashion (Ellman, et al., 1991, Methods Enzymol. 202:301-336).
All HPLC analyses of LysAlaAcm ligations were monitored on an Agilent HPLC using a Waters C18 column (Milford, Mass.).
All HPLC analyses of LysAlaAcm ligations were monitored as described elsewhere herein (Gradient 1).
(§1) The extent of transfer was evaluated by HPLC analysis of reactions with adenosyl donor, AaT or BpT, and an aminocoumarin-labeled reporter peptide (for AaT, LysAlaAcm was used as previously described by Tirrell and co-workers; for BpT, AspAlaAcm was used in an analogous fashion) (Connor et al., 2008, ChemBioChem 9:366-369). Monitoring LysAlaAcm or AspAlaAcm acylation in crude reaction mixtures using absorbance at 325 nm conveniently eliminates background due to other proteins and nucleic acids, although some non-natural amino acids such as naphthylalanine (Nap) and methoxycoumarinylalanine (Mcm) also absorb in this range.
To evaluate substrate scope, reactions were analyzed after 4 h, when transfer should be complete for the fully enzymatic reaction with Phe tRNA synthetase (Connor et al., 2008, ChemBioChem 9:366-369).

V. vulnificus BpT = assay: AspAlaAcm ligation assay: BpT-catalyzed transfer from adenosyl donor to AspAlaAcm; type: biochemical; conditions: single addition of donor, 100 μM AspAlaAcm, 2.26 μM BpT, standard BpT-catalyzed transfer conditions
Method: Ligation test reactions with V. vulnificus Bpt were conducted in a manner identical to the AaT LysAlaAcm ligation assay with the following exceptions, 2.26 μM BpT was used rather than 2.26 μM AaT, 100 μM AspAlaAcm was used rather than 100 μM LysAlaAcm, and BpT Ligation Buffer (50 mM HEPES, pH 8, 150 mM KO, 10 mM MgCl2) was used rather than AaT Ligation Buffer.
as §1

[5] = molecular target: T1, E. coli aminoacyl transferase (AaT); assay: A/AMP/ATP/pdCpA inhibition studies of ligation with Phe donor 4a; type: biochemical; design: made in house; host or cells: E. coli BL21-Gold (DE3), plasmid pEG6, Ni-NTA purified; conditions: tested at 1 mM, 2.5 mM and 5 mM with Phe donor 4a
Method: Each ligation reaction was performed as described elsewhere herein.
To better understand limitations on the yield from AaT reactions, the possibilities of inhibition by hydrolyzed substrate or aminoacylated product were assessed. Since the acyl adenosine donor substrate is not regenerated during the reaction (unlike the aaRS/tRNA/AaT reaction), it was hypothesized that the adenosine byproduct might inhibit further acylation by binding to AaT. To investigate this possibility, adenosine was added to the reaction at varying concentrations and monitored the reaction timecourse by fluorescence spectroscopy and by HPLC.

[6] = 100 μM LysAlaAcm, 0.05 to 1 mM donor
[7] = single addition of 1 mM donor, 100 μM LysAlaAcm, 2.26 μM AaT, 37° C., no additive

T1 sequence (P0A8P1 whole entry): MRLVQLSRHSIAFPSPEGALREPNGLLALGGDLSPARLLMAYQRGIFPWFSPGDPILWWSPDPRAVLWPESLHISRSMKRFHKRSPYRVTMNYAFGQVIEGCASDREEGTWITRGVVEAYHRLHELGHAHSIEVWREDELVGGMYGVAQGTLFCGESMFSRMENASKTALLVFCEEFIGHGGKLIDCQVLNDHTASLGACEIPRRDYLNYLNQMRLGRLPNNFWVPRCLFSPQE
T2 sequence (P0A8P1 whole entry): as above

Nc1ncnc2c1ncn2[C@@H]1O[C@H](CO)[C@@H](O)[C@H]1OC(=O)[C@@H](N)Cc1ccccc1 [4a, (S)-(2R,3R,4R,5R)-2-(6-Amino-9H-purin-9-yl)-4-hydroxy-5-(hydroxymethyl)tetrahydrofuran-3-2-amino-3-phenylpropanoate]
Km [1, 6]: 124 µM
kcat [1, 6]: 1.68±0.09×10^−1 s^−1
Km ([1]; restated in μM): 124 µM
Modification of α-casein N-terminus, Edman degradation [2]: quantitative addition of Phe
Donor hydrolysis [3]: completely hydrolyzed
Transfer to LysAlaAcm by AaT (in words) [4]: transferred efficiently
Conversion of LysAlaAcm after a second addition of donor ([4]; second addition of 1 mM 4a): completion
Ligated Product Yield (%) [4, 7]: 92% and 92.7 ± 5.2%
Ligated Product Yield (%) ([4]; single addition of donor, additive 1 mM pdCpA): 90.4 ± 0.9%

CC(C)C[C@H](N)C(=O)O[C@@H]1[C@H](O)[C@@H](CO)O[C@H]1n1cnc2c(N)ncnc21 [4b, (S)-(2R,3R,4R,5R)-2-(6-amino-9H-purin-9-yl)-4-hydroxy-5-(hydroxymethyl)tetrahydrofuran-3-yl 2-amino-4-methylpentanoate]
Transfer to LysAlaAcm by AaT (in words) [4]: transferred efficiently
Ligated Product Yield (%) [4, 7]: 80.4 ± 0.9%
Ligated Product Yield (%) (V. vulnificus BpT): 5%

Nc1ncnc2c1ncn2[C@@H]1O[C@H](COP(=O)(O)OP(=O)(O)OP(=O)(O)O)[C@@H](O)[C@H]1O [ATP, adenosine triphosphate]
Inhibition of the reaction, comparison of adenosine compounds [5]: inhibited the reaction

CC(C)SSC[C@H](N)C(=O)O[C@@H]1[C@H](O)[C@@H](CO)O[C@H]1n1cnc2c(N)ncnc21 [4l, (R)-(2R,3R,4R,5R)-2-(6-amino-9H-purin-9-yl)-4-hydroxy-5-(hydroxymethyl)tetrahydrofuran-3-yl 2-amino-3-(isopropyldisulfanyl)propanoate]
Ligated Product Yield (%) [4, 7]: 42.3%
Ligated Product Yield (%) (V. vulnificus BpT): 20%
